The values below come from US11267812B2 (Mirati Therapeutics, Inc., priority 2016, dated 2022).

Each structure is given as a SMILES string.

For this assay, the system named is Phospho-ERK in NCI-H358 cells expressing KRas G12C. Description: Cellular inhibition of KRas G12C by Phospho-ERK measurement in NCI-H358 cells. It is filed as cell-based. The following applies: Homo sapiens; NCI-H358 cells, 3 hours compound treatment; read-out: IC50 (pERK(Thr202/Tyr204) normalized with GAPDH). On the procedure: The cellular inhibition of KRAs G12C by exemplary compounds of the present invention was determined by measuring the amount of a downstream marker of KRas activity, phosphorylated ERK (“Phospho-ERK”).
NCI-H358 cells (ATCC CRL-5807) express KRas G12C and were grown in RPMI medium supplemented with 10% fetal bovine serum, penicillin/streptomycin and 10 mM HEPES. Cells were plated in poly-D-Lysine coated 96-well plates at a concentration of 50,000 cells/well and allowed to attach for 8-12 hours. Diluted compounds were then added at a final concentration of 0.5% DMSO. After 3 hours, the medium was removed, 150 μL of 4% formaldehyde was added and the plates were incubated for 20 minutes. The plates were washed with PBS, and permeabilized using 150 μL of ice cold 100% methanol for 10 minutes. Non-specific antibody binding to the plates was blocked using 100 μL Licor Blocking Buffer (Li-Cor Biotechnology, Lincoln Nebr.) for 1 hour at room temperature. Positive control samples and samples lacking cells were parallel processed with test samples as standards.
The amount Phospho-ERK was determined using an antibody specific for the phosphorylated form of ERK and compared to the amount of GAPDH. Primary antibodies used for detection were added as follows: Phospho-ERK (Cell Signaling cs9101) diluted 1:500 and GAPDH (Millipore MAB374) diluted 1:5000 in Licor block+0.05% Tween 20. The plates were incubated for 2 hours at room temperature. The plates were washed with PBS+0.05% Tween 20.
Secondary antibodies used to visualize primary antibodies were added as follows: Anti-rabbit-680 diluted 1:1000 and Anti-mouse-800 diluted 1:1000 in Licor Block+0.050 Tween 20 and incubated for 1 hour at room temperature. The plates were washed with PBS+0.05% o Tween 20. A100 L aliquot of PBS was added to each well and the plates were read on a LICOR AERIUS plate reader.
The pERK(Thr202/Tyr204) signal was normalized with the GAPDH signal and percent of DMSO control values were calculated. IC50 values were generated using a 4 parameter fit of the dose response curve. Key: “A”≥0.001-≤1 μM; “B”[…] and ND=not determined.
For the compound `C=CC(=O)N1CCN(c2nc(OC[C@@H]3CCCN3C)nc3c2CCN(c2ccc(F)c4ccccc24)C3)CC1CC#N` (stereo partly drawn) [Example 246, 2-[4-[7-(4-fluoro-1-naphthyl)-2-[[(2S)-1-methylpyrrolidin-2-yl]methoxy]-6,8-dihydro-5H-pyrido[3,4-d]pyrimidin-4-yl]-1-prop-2-enoyl-piperazin-2-yl]acetonitrile], the IC50 was in the range of 1 to 1000 nM.
The same measure for `C=CC(=O)N1CCN(c2nc(OCCCN3CCN(C)CC3)nc3c2CCN(c2cc(O)cc4ccccc24)C3)CC1` [Example 82, 1-(4-(7-(3-hydroxynaphthalen-1-yl)-2-(3-(4-methylpiperazin-1-yl)propoxy)-5,6,7,8-tetrahydropyrido[3,4-d]pyrimidin-4-yl)piperazin-1-yl)prop-2-en-1-one]: 1 to 1000 nM; for `C=CC(=O)N1CCN(c2nc(OCCCN3CCN(C(C)=O)CC3)nc3c2CCN(c2cc(O)cc4ccccc24)C3)CC1` [Example 135, 1-[4-[2-[3-(4-acetylpiperazin-1-yl)propoxy]-7-(3-hydroxy-1-naphthyl)-6,8-dihydro-5H-pyrido[3,4-d]pyrimidin-4-yl]piperazin-1-yl]prop-2-en-1-one]: 1 to 1000 nM.
The result for `C=CC(=O)N1CCN(c2nc(OC[C@@H]3C[C@@H](O)CN3C)nc3c2CCN(c2cccc4ccccc24)C3)CC1CC#N` (stereo partly drawn) [Example 218, 2-(1-acryloyl-4-(2-(((2S,4R)-4-hydroxy-1-methylpyrrolidin-2-yl)methoxy)-7-(naphthalen-1-yl)-5,6,7,8-tetrahydropyrido[3,4-d]pyrimidin-4-yl)piperazin-2-yl)acetonitrile] reads 1 to 1000 nM; that for `C=CC(=O)N1CCN(c2nc(OCC3CCN(C4CC4)C3)nc3c2CCN(c2cc(O)cc4ccccc24)C3)CC1` (stereo not shown) [Example 190, 1-(4-(2-((1-cyclopropylpyrrolidin-3-yl)methoxy)-7-(3-hydroxynaphthalen-1-yl)-5,6,7,8-tetrahydropyrido[3,4-d]pyrimidin-4-yl)piperazin-1-yl)prop-2-en-1-one], 1 to 1000 nM; that for `C=CC(=O)N1CCN(c2nc(OC[C@@H]3CCCN3C)nc3c2CCN(c2c(C)ccc4cn[nH]c24)C3)CC1CC#N` (stereo partly drawn) [Example 238, 2-(1-acryloyl-4-(7-(6-methyl-1H-indazol-7-yl)-2-(((S)-1-methylpyrrolidin-2-yl)methoxy)-5,6,7,8-tetrahydropyrido[3,4-d]pyrimidin-4-yl)piperazin-2-yl)acetonitrile], 1 to 1000 nM.
The same measure for `C=CC(=O)N1CCN(c2nc(OCCN(C)C)nc3c2CCN(c2cc(O)cc4ccccc24)C3)[C@@H](C)C1` [Example 116, (S)-1-(4-(2-(2-(dimethylamino)ethoxy)-7-(3-hydroxynaphthalen-1-yl)-5,6,7,8-tetrahydropyrido[3,4-d]pyrimidin-4-yl)-3-methylpiperazin-1-yl)prop-2-en-1-one]: 1 to 1000 nM; for `C=CC(=O)N1CCN(c2nc(OC[C@@H]3CCCN3C(C)C)nc3c2CCN(c2cc(O)cc4ccccc24)C3)CC1` [Example 145, 1-[4-[7-(3-hydroxy-1-naphthyl)-2-[[(2S)-1-isopropylpyrrolidin-2-yl]methoxy]-6,8-dihydro-5H-pyrido[3,4-d]pyrimidin-4-yl]piperazin-1-yl]prop-2-en-1-one]: 1 to 1000 nM; for `C=CC(=O)N1CCN(c2nc(OC[C@@H]3C[C@H](F)CN3C)nc3c2CCN(c2cccc4ccccc24)C3)CC1CC#N` (stereo partly drawn) [Example 221, 2-(1-acryloyl-4-(2-(((2S,4S)-4-fluoro-1-methylpyrrolidin-2-yl)methoxy)-7-(naphthalen-1-yl)-5,6,7,8-tetrahydropyrido[3,4-d]pyrimidin-4-yl)piperazin-2-yl)acetonitrile]: 1 to 1000 nM.
With `C=CC(=O)N1CCN(c2nc(OC[C@@H]3CCCN3C)nc3c2CCN(c2cccc(C)c2C)C3)CC1CC#N` (stereo partly drawn) [Example 228, 2-(1-acryloyl-4-(7-(2,3-dimethylphenyl)-2-(((S)-1-methylpyrrolidin-2-yl)methoxy)-5,6,7,8-tetrahydropyrido[3,4-d]pyrimidin-4-yl)piperazin-2-yl)acetonitrile], the IC50 is 1 to 1000 nM.
